Source: the supplement of paper PMC10627819

Key:
S. aureus Newman [1] = test: fitness (endpoint OD595 vs no drug) (fraction); higher = more growth
In short: (§1)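 Fitness compares growth at the stationary-phase transition with the robust mean of no-drug control wells, as a ratio of optical densities. The ratio is capped at 1. Wells of 384-well plates held 30 µl, or 55 µl for S. pneumoniae, inoculated at OD595 0.01. Readings at OD595 every 30 min for 14 h at 37 °C were corrected against the first reading.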

S. pneumoniae D39V [2] = test: as above
In short: as §1

S. aureus Newman [3] = test: Bliss interaction score (quartile over a dose matrix) (fitness difference); higher = more antagonism (negative = synergy)
In short: (§2)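 Fitness was derived from optical density at entry into stationary phase, divided by the robust mean of the no-drug wells on the same plate. That reading was taken as OD595, and the ratio was capped at 1. Single-drug fitness was inferred from the combination data. The Bliss score, observed fitness minus the expected product of single-drug fitness, was summarised as quartiles over technical, biological and donor/recipient replicates.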

B. subtilis 168 = test: as above
In short: as §2

S. pneumoniae D39V [4] = test: as above
In short: as §2

S. aureus DSM 20231 = test: as above
In short: as §2
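Wherever Bliss interaction score (quartile over a dose matrix) is given: first quartile when negative (synergy) and third quartile when positive (antagonism).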

CN(C)c1cc(NC(=O)CNC(C)(C)C)c(O)c2c1C[C@H]1C[C@H]3[C@H](N(C)C)C(O)=C(C(N)=O)C(=O)[C@@]3(O)C(O)=C1C2=O [Tigecycline] + CN[C@H](CC(C)C)C(=O)N[C@H]1C(=O)N[C@@H](CC(N)=O)C(=O)N[C@H]2C(=O)N[C@H]3C(=O)N[C@H](C(=O)N[C@H](C(=O)O)c4cc(O)cc(O)c4-c4cc3ccc4O)[C@H](O)c3ccc(c(Cl)c3)Oc3cc2cc(c3O[C@@H]2O[C@H](CO)[C@@H](O)[C@H](O)[C@H]2O[C@H]2C[C@](C)(N)[C@H](O)[C@H](C)O2)Oc2ccc(cc2Cl)[C@H]1O [Vancomycin]
Details | fitness
S. aureus Newman [1], first compound 0.039 µg/mL, partner 0.1875 µg/mL | 0.974
S. aureus Newman [1], first compound 0.039 µg/mL, partner 0.375 µg/mL | 0.998
S. aureus Newman [1], first compound 0.039 µg/mL, partner 0.75 µg/mL | ≥ 1
S. aureus Newman [1], first compound 0.078 µg/mL, partner 0.1875 µg/mL | ≥ 1
S. aureus Newman [1], first compound 0.078 µg/mL, partner 0.375 µg/mL | 0.99
S. aureus Newman [1], first compound 0.078 µg/mL, partner 0.75 µg/mL | 0.987
S. aureus Newman [1], first compound 0.156 µg/mL, partner 0.1875 µg/mL | 0.992
S. aureus Newman [1], first compound 0.156 µg/mL, partner 0.375 µg/mL | ≥ 1
S. aureus Newman [1], first compound 0.156 µg/mL, partner 0.75 µg/mL | 0.987
S. pneumoniae D39V [2], first compound 0.65 µg/mL, partner 0.03125 µg/mL | 0.967
S. pneumoniae D39V [2], first compound 0.65 µg/mL, partner 0.0625 µg/mL | 0.939
S. pneumoniae D39V [2], first compound 0.65 µg/mL, partner 0.125 µg/mL | 0.871
S. pneumoniae D39V [2], first compound 0.65 µg/mL, partner 0.5 µg/mL | 0.0606
S. pneumoniae D39V [2], first compound 1.3 µg/mL, partner 0.03125 µg/mL | 0.989
S. pneumoniae D39V [2], first compound 1.3 µg/mL, partner 0.0625 µg/mL | 0.937
S. pneumoniae D39V [2], first compound 1.3 µg/mL, partner 0.125 µg/mL | 0.882
S. pneumoniae D39V [2], first compound 1.3 µg/mL, partner 0.5 µg/mL | 0.0528
S. pneumoniae D39V [2], first compound 2.6 µg/mL, partner 0.03125 µg/mL | 0.961
S. pneumoniae D39V [2], first compound 2.6 µg/mL, partner 0.0625 µg/mL | 0.962
S. pneumoniae D39V [2], first compound 2.6 µg/mL, partner 0.125 µg/mL | 0.918
S. pneumoniae D39V [2], first compound 2.6 µg/mL, partner 0.25 µg/mL | 0.543
S. pneumoniae D39V [2], first compound 2.6 µg/mL, partner 0.5 µg/mL | 0.0988

Details | Bliss interaction score
B. subtilis 168 | 0.0787
S. aureus DSM 20231 | 0.0923
S. aureus Newman [3] | 0.0428
S. pneumoniae D39V [4] | 0.0783

CO/N=C(\C(=O)N[C@@H]1C(=O)N2C(C(=O)O)=C(COC(N)=O)CS[C@H]12)c1ccco1 [Cefuroxime] + Cn1nnc(-c2ccc(-c3ccc(N4C[C@H](CO)OC4=O)cc3F)cn2)n1 [Tedizolid]
fitness, S. aureus Newman [1], one replicate
Details | first compound 0.04875 µg/mL | first compound 0.0975 µg/mL | first compound 0.195 µg/mL
partner 0.0625 µg/mL | 0.614 | 0.641 | 0.517
partner 0.125 µg/mL | 0.0599 | 0.0707 | 0.0587
partner 0.25 µg/mL | 0.496 | 0.513 | 0.425

Details | Bliss interaction score
B. subtilis 168 | 0.136
S. aureus DSM 20231 | -0.223
S. aureus Newman [3] | 0.259
S. pneumoniae D39V [4] | 0.026

O=C(O)c1cn(C2CC2)c2cc(N3CCNCC3)c(F)cc2c1=O [Ciprofloxacin] + CCCCCCCCCC(=O)N[C@@H]1[C@H]([C@@H]([C@H](O[C@H]1OC2=C3C=C4C=C2OC5=C(C=C(C=C5)[C@H]([C@H]6C(=O)N[C@@H](C7=C(C(=CC(=C7)O)OC8[C@H]([C@H]([C@@H]([C@H](O8)CO)O)O)O)C9=C(C=CC(=C9)[C@H](C(=O)N6)NC(=O)[C@@H]4NC(=O)[C@@H]1C2=CC(=CC(=C2)OC2=C(C=CC(=C2)[C@H](C(=O)N[C@H](CC2=CC(=C(O3)C=C2)Cl)C(=O)N1)N)O)O)O)C(=O)O)O[C@H]1[C@@H]([C@H]([C@@H]([C@H](O1)CO)O)O)NC(=O)C)Cl)CO)O)O [Teicoplanin]
fitness, S. aureus Newman [1], main component drawn
Details | first compound 0.0375 µg/mL | first compound 0.075 µg/mL | first compound 0.15 µg/mL
partner 0.1562 µg/mL | 0.681 | 0.629 | 0.0421
partner 0.3125 µg/mL | 0.713 | 0.626 | 0.0116
partner 0.625 µg/mL | 0.608 | 0.534 | 0.0117

fitness, S. aureus Newman [1], one replicate, main component drawn
Details | first compound 0.078 µg/mL | first compound 0.156 µg/mL | first compound 0.312 µg/mL
partner 0.62 µg/mL | 0.535 | 0.0341 | 0.036
partner 1.24 µg/mL | 0.372 | 0.0368 | 0.0337
partner 2.48 µg/mL | 0.0816 | 0.0702 | 0.0565

main component drawn
Details | Bliss interaction score
B. subtilis 168 | -0.1
S. aureus DSM 20231 | 0.0835
S. aureus Newman [3] | -0.0935
S. pneumoniae D39V [4] | -0.063
